The results in this text go back to patent US20260137696A1, “Compositions Comprising an Inhibitor of Galectin-3” (University of Liverpool, priority 2023, published 2026).

One data set has as its system HUVEC cells. The following applies: human, 24 h, 100 uM. The protocol: (§1) The compounds of Formula I and Formula II cytotoxicity in human colon cancer SW620 (FIG. 8A), vascular HUVEC (FIG. 8B) and human melanoma ACA19 (FIG. 9C) cells was assessed in the absence or presence of various concentrations of the compounds of Formula I and Formula II (the chemotherapeutic drug Etoposide, Etop, was also included as positive control) by Lactate dehydrogenase (LDH) release assay.
(§2) The compounds of Formula I and Formula II cytotoxicity in human colon cancer SW620 (FIG. 8A), vascular HUVEC (FIG. 8B) and human melanoma (ACA19+) cells, which was assessed in the absence or presence of various concentrations of the compounds of Formula I and Formula II (the chemotherapeutic drug Etoposide, Etop, was also included as positive control) by Lactate dehydrogenase (LDH) release assay.
(§3) SW620 and ACA19+ cells (5×10^4 cells/ml) were seeded into 96-well plate in DMEM and incubated at […] 5% CO2 for 24 hr. HUVECs (1.0×10^5 cells/ml) was seeded in EBM medium and incubated for 24-36 hr until they formed a monolayer. Compound inhibitors at different concentrations were then introduced to the cells (10× lysis buffer was included as maximum LDH activity control) for 24 hr. The culture medium was transferred to a new plate and was mixed with equal volume of reaction mixture provided in the kit for 30 min at room temperature before the absorbance was measured at 490 nm (reference 680 nm) by a spectrophotometer.

In another data set the test system is ACA19 cells. The following applies: human, 24 h, 100 uM. The method, then:
as §1, §2, §3

A further data set relates to SW620 cells. The following applies: human, 24 h, 100 uM. The protocol: as §1, §2, §3
Data set [1] concerns Salmonella typhimurium strain TA100. The data set can be described thus: Ames test (genotoxicity). The data set is classed as cell-based. The protocol:
(§4) Mutagenic potential of the compound of Formula I was assessed by Ames test in two Salmonella typhimurium strains TA98 and TA100 without and with metabolic activation (S9).
(§5) Effect of the compound inhibitors on genotoxicity was determined using the Salmonella typhimurium strains of TA 98 and TA 100 in the presence and absence of metabolic activation (S9). Each test concentration included the vehicle and positive controls. Briefly, the compounds were serially diluted in 24-well plates with or without the presence metabolic activation system (S9) and was incubated for 90 min at 37° C. in 250 rpm in a orbital shaking incubator. TA98 and TA100 were then introduced to the wells for 90 min. 50 μL aliquots from each well was dispensed into 384 well plates and incubated for 48 hrs at 37° C. in an incubator before positive wells were scored.
On the technique in general: The Ames test uses bacterial strains that need an amino acid and regain growth without it when mutated back.

Data set [2] has as its system Salmonella typhimurium strain TA98. The data set can be described thus: Ames test (genotoxicity). The data set is classed as cell-based. The protocol:
as §4, §5

Turning to `COc1cc([C@@H]2c3cc4c(cc3[C@@H](O[C@@H]3O[C@@H]5CO[C@@H](C)O[C@H]5[C@H](O)[C@H]3O)[C@H]3COC(=O)[C@H]23)OCO4)cc(OC)c1O` [Etoposide], the “cytotoxicity (LDH release)” value in the data set on HUVEC cells, with ACA19 cells and with SW620 cells was roughly 100% throughout.
`Nc1ccc2cc3ccccc3cc2c1` [Formula 2AA, reference compound]: the revertant colony count result in data set [1] and in data set [2] was “distinct increase” each time.
